Patent US20230255976A1, “Novel Compounds for the Treatment, Alleviation or Prevention of Disorders Associated with Tau Aggregates” (AC Immune SA, priority 2018, published 2023)

Key:
[1] = molecular target: T1, Tau K18 fragment aggregates (amino acids 244 to 372 of human Tau441) (Homo sapiens, UniProt P10636); experiment: Tau K18 disaggregation assay by ThT; format: biochemical; settings: 2 μM K18 aggregates, compounds 160 to 0.04 μM, 30 min RT, ThT fluorescence
T1 construct: encompassing amino acids 244 to 372 of the longest isoform (2N4R) of human Tau441; host or cells: bacteria
Procedure: Compounds were dissolved in anhydrous dimethyl sulfoxide (DMSO, Sigma-Aldrich) to reach a concentration of 10 mM. K18 aggregates and serial dilutions of compounds were mixed together in PBS (volume 50 μL) to a final concentration of 2 μM of K18 aggregates and from 160 to 0.04 μM of compounds. The mixture was incubated for 30 minutes at room temperature (RT), then 40 μL of this mixture were transferred into a black 384-well plate assay (Perkin-Elmer) and mixed with 10 μL of 100 μM ThT in 250 mM glycine (both from Sigma-Aldrich) in PBS. Fluorescence (relative fluorescence units; RFU) was measured in monoplicate or duplicate on a Tecan reader (excitation: 440 nm; emission: 485 nm). Percentage of K18 disaggregation was then calculated and half maximal effective concentration (EC50) was determined using GraphPad Prism version 5 (GraphPad Software) assuming a one-binding site fitting model.

[2] = tested on: human neuroblastoma cell line overexpressing full-length human Tau carrying the P301L mutation; experiment: Reduction of intracellular Tau aggregation (AlphaLISA); format: cell-based; settings: compound at 5 μM, 24 h; aggregated Tau normalized to total Tau, relative to DMSO-treated cells
Procedure: A human neuroblastoma cell line overexpressing the full-length form of human Tau carrying the P301 L mutation was cultured in complete medium [DMEM-F12 4.5 g/L Glutamax (Invitrogen), 15% FBS (Biochrom), 1% Peni/Strep (Invitrogen) supplemented with 2.5 μg/ml of G418 (Sigma-Aldrich) selection antibiotic]. The day before the experiment 5×10^5 cells/well were plated in a 6 well plate in 3 mL of complete medium. The next day, cells were incubated with DMSO or a compound of the present invention at 5 μM for additional 24 h at 37° C. […]
Phosphorylated, aggregated, and total Tau were quantified by AlphaLisa using the following antibody pairs: • HT7-Acceptor beads+biotin (BT)-Tau13-Donor beads: Total Tau • HT7-Acceptor beads+biotin (BT)-HT7-Donor beads: Aggregated human Tau […]
After incubation of this mixture at room temperature for 1 h, 25 μL of Streptavidin Donor beads (Perkin Elmer) at 25 μg/mL were added in the dark. Plates were analyzed after 30 min incubation using the EnSpire Alpha instrument and EnSpire Workstation version 3.00. Data for aggregated Tau were normalized to total Tau and then expressed as percentage of the DMSO-treated cells.

T1 sequence (P10636 561-689): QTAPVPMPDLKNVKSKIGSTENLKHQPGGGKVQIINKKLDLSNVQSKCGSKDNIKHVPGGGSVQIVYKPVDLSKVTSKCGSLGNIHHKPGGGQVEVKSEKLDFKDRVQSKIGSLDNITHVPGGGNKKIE

SMILES | EC50 [1] [µM] | % Reduction of intracellular Tau aggregation [2]
Fc1ccc2[nH]c3c(c2c1)CC1CCC3N1c1ccc(N2CCOCC2)cn1 (centres unmarked) [Example 47] | 10 to 25 | 
c1ccc2c3c([nH]c2c1)CN(c1ccc(N2CCOCC2)nc1)CC3 [Example 44] |  | +++ (+++ % >50)
